In US4556660A, “N-(Bicyclic heterocyclyl)-4-piperidinamines” (Janssen Pharmaceutica N.V., priority 1983, dated 1985):
Where two headings read alike, the source gives them in different places.

Assays:
[1] = test system: serotonin; compound 48/80-induced gastric lesions; assay: Antagonistic activity on the effects of serotonin in the gastric lesion test (lesions induced by compound 48/80); assay type: in vivo, Male rats of a Wistar inbred strain
Method: Antagonistic activity on the effects of serotonin in the gastric lesion test
Male rats of a Wistar inbred strain, weighing 220-250 g, were starved overnight, water being available ad libitum. The test compounds were administered orally as a solution or as a suspension in aqueous medium. A control rat and a "blank" rat received the test compound. One hour later 5-[4-(diphenylmethyl)-1-piperazinylmethyl]-1-methyl-1H-benzimidazole-2-methanol was administered subcutaneously to all rats at the dose of 2.5 mg/kg.
Four hours after the intravenous injection of compound 48/80, the rats were decapitated and the stomachs were removed. Subsequently the stomachs were inspected for distension and contents (blood, fluid, food) and thoroughly rinsed. The macroscopic lesions were scored from 0 to +++, 0 corresponding to complete absence of visible lesions and the highest score corresponding to reddish rough patches covering more than half the glandular area.

[2] = test system: compound 48/80-induced lethality; assay: Protection of rats from compound 48/80-induced lethality; assay type: in vivo, Male rats of an inbred Wistar strain; settings: Rattus norvegicus, 4 h, read-out: compound 48/80 lethality test rats-ED50
Method: Protection of rats from compound 48/80-induced lethality
The protection from compound 48/80-induced lethal circulatory collapse appears to be a simple way of evaluating quantitatively the antihistaminic activity of test compounds. Male rats of an inbred Wistar strain, weighing 240-260 g were used in the experiment. After overnight starvation the rats were transferred to conditioned laboratories (temp.=21±1° C., relative humidity-65±5%).
The rats were treated subcutaneously or orally with a test compound or with the solvent (NaCl solution, 0.9%). […] Survival after 4 hours is therefore considered to be a safe criterion of a protective effect of drug administration.
The ED50 -values of the compounds of formula (I) and the intermediates of formula (XVIII) are listed in the first column of table 1 and table 2. Said ED50 -values are the values in mg/kg body weight at which the tested compounds protect 50% of the tested animals against compound 48/80-induced lethality.

[3] = Rattus norvegicus, po; read-out: gastric lesion test ED50
[4] = Rattus norvegicus, po, read-out: gastric lesion test ED50

SMILES	ED50 [1, 3]	ED50 [2]	ED50 [1, 4]
c1ccc(Cn2c(NC3CCN(CCNc4ncccn4)CC3)nc3ccccc32)cc1 [Compound 65, 1-(phenylmethyl)-N-[1-[2-[(2-pyrimidinyl)amino]ethyl]-4-piperidinyl]-1H-benzimidazol-2-amine]	0.31 mg/kg	0.08 mg/kg	–
Cc1ccc(Cn2c(NC3CCN(CCNc4ncccn4)CC3)nc3ccccc32)cc1 [Compound 67, 1-[(4-methylphenyl)methyl]-N-[1-[2-[(2-pyrimidinyl)amino]ethyl]-4-piperidinyl]-1H-benzimidazol-2-amine]	–	0.16 mg/kg	0.63 mg/kg
Clc1ccc(Cn2c(NC3CCN(CCNc4ncccn4)CC3)nc3ccccc32)cc1 [Compound 68, 1-[(4-chlorophenyl)methyl]-N-[1-[2-(2-pyrimidinylamino)ethyl]-4-piperidinyl]-1H-benzimidazol-2-amine]	2.5 mg/kg	0.16 mg/kg	–
COc1ccc(Cn2c(NC3CCN(CCNc4ncccn4)CC3)nc3ccccc32)cc1 [Compound 69, 1-[(4-methoxyphenyl)methyl]-N-[1-[2-(2-pyrimidinylamino)ethyl]-4-piperidinyl]-1H-benzimidazol-2-amine]	2.5 mg/kg	0.31 mg/kg	–
O=C(O)/C=C/C(=O)O.O=C(O)/C=C/C(=O)O.c1cnc(NCCN2CCC(Nc3nc4ccccc4n3Cc3cscn3)CC2)nc1 [Compound 72, N-[1-[2-(2-pyrimidinylamino)ethyl]-4-piperidinyl]-1-(4-thiazolylmethyl)-1H-benzimidazol-2-amine (E)-2-butenedioate (1:2)]	–	0.02 mg/kg	0.08 mg/kg
Oc1ccc(Cn2c(NC3CCN(CCNc4ncccn4)CC3)nc3ccccc32)cc1 [Compound 73, 4-[[2-[[1-[2-(2-pyrimidinylamino)ethyl]-4-piperidinyl]amino]-1H-benzimidazol-1-yl]methyl]phenol]	2.5 mg/kg	2.5 mg/kg	–
CN(c1nc2ccccc2n1Cc1ccc(F)cc1)C1CCN(CCNc2ncccn2)CC1 [Compound 75]	–	0.08 mg/kg	0.63 mg/kg
Fc1ccc(Cn2c(NC3CCN(CCOc4ccc5ccccc5n4)CC3)nc3ccccc32)cc1 [Compound 77, 1-[(4-fluorophenyl)methyl]-N-[1-[2-(2-quinolinyloxy)ethyl]-4-piperidinyl]-1H-benzimidazol-2-amine]	2.5 mg/kg	1.25 mg/kg	–
CSc1nccc(OCCN2CCC(Nc3nc4ccccc4n3Cc3ccc(F)cc3)CC2)n1 [Compound 79, 1-[(4-fluorophenyl)methyl]-N-[1-[2-[[2-(methylthio)-4-pyrimidinyl]oxy]ethyl]-4-piperidinyl]-1H-benzimidazol-2-amine]	2.5 mg/kg	0.16 mg/kg	–
Fc1ccc(Cn2c(NC3CCN(CCOc4ncccn4)CC3)nc3ccccc32)cc1 [Compound 81, 1-[(4-fluorophenyl)methyl]-N-[1-[2-(2-pyrimidinyloxy)ethyl]-4-piperidinyl]-1H-benzimidazol-2-amine]	0.63 mg/kg	0.16 mg/kg	–
O=C(O)/C=C/C(=O)O.O=C(O)/C=C/C(=O)O.c1cnc(OCCN2CCC(Nc3nc4ccccc4n3Cc3ccco3)CC2)nc1 [Compound 83, 1-(2-furanylmethyl)-N-[1-[2-(2-pyrimidinyloxy)ethyl]-4-piperidinyl]-1H-benzimidazol-2-amine (E)-2-butenedioate (1:2)]	1.25 mg/kg	0.08 mg/kg	–
Fc1ccc(Cn2c(NC3CCN(CCOCc4ccccn4)CC3)nc3ccccc32)cc1.O=C(O)/C=C/C(=O)O.O=C(O)/C=C/C(=O)O [Compound 84, 1-[(4-fluorophenyl)methyl]-N-[1-[2-(2-pyridinylmethoxy)ethyl]-4-piperidinyl]-1H-benzimidazol-2-amine (E)-2-butenedioate (1:2)]	2.5 mg/kg	0.08 mg/kg	–
O.O=c1nc(NCCN2CCC(Nc3nc4ccccc4n3Cc3ccc(F)cc3)CC2)[nH]cc1Cc1ccc(Cl)cc1 [Compound 85, 5-[(4-chlorophenyl)methyl]-2-[[2-[4-[[1-[(4-fluorophenyl)methyl]-1H-benzimidazol-2-yl]amino]-1-piperidinyl]ethyl]amino]-4(1H)-pyrimidinone monohydrate]	2.5 mg/kg	1.25 mg/kg	–
CCCc1cc(O)nc(NCCN2CCC(Nc3nc4ccccc4n3Cc3ccc(F)cc3)CC2)n1 [Compound 86, 2-[[2-[4-[[1-[(4-fluorophenyl)methyl]-1H-benzimidazol-2-yl]amino]-1-piperidinyl]ethyl]amino]-6-propyl-4-pyrimidinol]	2.5 mg/kg	0.31 mg/kg	–
O=c1ccnc(NCCN2CCC(Nc3nc4ccccc4n3Cc3ccc(F)cc3)CC2)[nH]1 [Compound 87]	0.63 mg/kg	0.08 mg/kg	–
O=c1nc(NCCN2CCC(Nc3nc4ccccc4n3Cc3ccc(F)cc3)CC2)[nH]c2ccccc12 [Compound 88, 2-[[2-[4-[[1-[(4-fluorophenyl)methyl]-1H-benzimidazol-2-yl]amino]1-piperidinyl]ethyl]amino]-4(1H)-quinazolinone]	2.5 mg/kg	0.63 mg/kg	–
Cc1cc(=O)[nH]c(NCCN2CCC(Nc3nc4ccccc4n3Cc3ccc(F)cc3)CC2)n1 [Compound 90]	0.63 mg/kg	0.16 mg/kg	–
Fc1ccc(Cn2c(NC3CCN(CCSc4ncccn4)CC3)nc3ccccc32)cc1 [Compound 91, 1-[(4-fluorophenyl)methyl]-N-[1-[2-(2-pyrimidinylthio)ethyl]-4-piperidinyl]-1H-benzimidazol-2-amine]	0.16 mg/kg	0.16 mg/kg	–
O.O=c1nc(SCCN2CCC(Nc3nc4ccccc4n3Cc3ccc(F)cc3)CC2)[nH]c2ccccc12 [Compound 92, 2-[2-[4-[[1-[(4-fluorophenyl)methyl]-1H-benzimidazol-2-yl]amino]-1-piperidinyl]ethylthio]-4(1H)-quinazolinone monohydrate]	2.5 mg/kg	0.31 mg/kg	–
Cl.Cl.Cl.Nc1cccnc1NCCN1CCC(Nc2nc3ccccc3n2Cc2ccc(F)cc2)CC1 [Compound 93, N^2-[2-[4-[[1-[(4-fluorophenyl)methyl] -1H-benzimidazol-2-yl]amino]-1-piperidinyl]ethyl]-2,3-pyridinediamine trihydrochloride]	0.31 mg/kg	0.08 mg/kg	–
Fc1ccc(Cn2c(NC3CCN(CCNc4ccncn4)CC3)nc3ccccc32)cc1 [Compound 94, 1-[(4-fluorophenyl)methyl]-N-[1-[2-(4-pyrimidinylamino)ethyl]-4-piperidinyl]-1H-benzimidazol-2-amine hemihydrate]	1.25 mg/kg	0.08 mg/kg	–
Nc1cncnc1NCCN1CCC(Nc2nc3ccccc3n2Cc2ccc(F)cc2)CC1 [Compound 96, N^4-[2-[4-[[1-[(4-fluorophenyl)methyl]-1H-benzimidazol-2-yl]amino]-1-piperidinyl]ethyl]-4,5-pyrimidinediamine]	0.02 mg/kg	0.08 mg/kg	–
Fc1ccc(Cn2c(NC3CCN(C4CCN(c5ccccn5)CC4)CC3)nc3ccccc32)cc1 [Compound 97, N-[1-[(4-fluorophenyl)methyl]-1H-benzimidazol-2-yl]-1'-(2-pyridinyl)-[1,4'-bipiperidin]-4-amine (E)-2-butenedioate (2:3) monohydrate]	2.5 mg/kg	0.63 mg/kg	–
CC(=O)N(CCN1CCC(Nc2nc3ccccc3n2Cc2ccc(F)cc2)CC1)c1ncccn1.O=C(O)/C=C/C(=O)O.O=C(O)/C=C/C(=O)O [Compound 99, N-[2-[4-[[1-[(4-fluorophenyl)methyl]-1H-benzimidazol-2-yl]amino]-1-piperidinyl]ethyl]-N-(2-pyrimidinyl)acetamide (E)-2-butenedioate (1:2)]	0.63 mg/kg	0.04 mg/kg	–
O=C(c1ccccc1)N(CCN1CCC(Nc2nc3ccccc3n2Cc2ccc(F)cc2)CC1)c1ncccn1 [Compound 100, N-[2-[4-[[1-fluorophenyl)methyl]-1H-benzimidazol-2-yl]amino]-1-piperidinyl]ethyl]-N-(2-pyrimidinyl)benzamide (E)-2-butenedioate (1:2)]	0.63 mg/kg	0.08 mg/kg	–
Fc1ccc(Cn2c(NC3CCN(CCNC(=S)Nc4cccnc4)CC3)nc3ccccc32)cc1 [Compound 104, N-[2-[4-[[1-[(4-fluorophenyl)methyl]-1H-benzimidazol-2-yl]amino]-1-piperidinyl]ethyl]-N'-(3-pyridinyl)thiourea]	0.63 mg/kg	0.63 mg/kg	–
Fc1ccc(Cn2c(NC3CCN(CCNC(=S)Nc4ccccn4)CC3)nc3ccccc32)cc1 [Compound 105, N-[2-[4-[[1-[(4-fluorophenyl)methyl]-1H-benzimidazol-2-yl]amino]-1-piperidinyl]ethyl]-N'-(2-pyridinyl)thiourea]	0.63 mg/kg	0.63 mg/kg	–
Nc1cccnc1NC(=S)NCCN1CCC(Nc2nc3ccccc3n2Cc2ccc(F)cc2)CC1 [Compound 107, N-(3-amino-2-pyridinyl)-N'-[2-[4-[[1-[(4-fluorophenyl)methyl]-1H-benzimidazol-2-yl]amino]-1-piperidinyl]ethyl]thiourea]	0.31 mg/kg	0.16 mg/kg	–
